According to US9067888B2, “Inhibitors of protein kinases” (Ingenium Pharmaceuticals GmbH, priority 2010, dated 2015):

Columns and labels:
[1] = system: TNF-alpha inducible reporter gene; assay: Inhibition of TNF-alpha-induced reporter gene expression (luciferase) in HeLa-derived cell line; format: cell-based, human; conditions: Homo sapiens, 6 h, remaining luciferase activity in presence of 3 μM of compound as ratio of DMSO-treated cells, TNF-alpha 50 ng/ml, read-out: Efficacy (ratio to DMSO) TNF-alpha induced response
Description: TNF-alpha responsive cell lines like the human HeLa cell line can be used to study cellular responses to TNF-alpha, e.g. transcriptional regulation of a transfected TNF-alpha responsive reporter gene, and effects of kinase inhibitors on this response.
In order to analyse compound effects on TNF-alpha mediated transcriptional response, a HeLa-derived cell line stably transfected with a TNF-alpha inducible reporter gene was used (Panomics Catalog No. RC0013). The cell line was obtained by co-transfection of a luciferase reporter gene (Panomics P/N LR0051) and pHyg into human cervical epithelial HeLa cells, followed by hygromycin selection. TNFα-induced luciferase activity was used to select clones from the hygromycin-resistant cells. The cell line was maintained and stimulated according to the manufacturer's instructions. Briefly, cells were seeded at 5×10^5/well in 1 ml of growth medium in a 12-well plate and incubated in a humidified incubator at 37° C. and 5% CO2 for 24 hours. Medium was replaced with 1 ml of serum free medium and compounds were added up to concentrations of […]. After 1 hour of incubation, TNF-alpha was added to achieve a final concentration of 50 ng/ml. The culture dish was further incubated in a humidified incubator at 37° C. and 5% CO2 for 6 hours, medium was removed and 100 μL of lysis buffer were added to each well and the assay for luciferase activity was performed according to assay manufacturer's (Promega P/N E1500) recommendations. For more information about this cell line, go to worldwide website www(dot)panomics.com.
Compound effects on TNF-alpha-induced reporter gene expression is shown in column 6 in Table 1 given below. Indicated is the remaining luciferase activity after incubation in presence of 3 μM of compound as a ratio of the activity of DMSO-treated cells without compound. Specifically, it was intended to distinguish cell permeable compounds from other compounds having significant inhibitory potency with regard to other CDKs, but fail to penetrate cells or are unstable under the conditions of the experiment.

[2] = biological target: CDK9 (Homo sapiens (Human), UniProt P50750); assay: In vitro kinase inhibition, KinaseProfiler service of Millipore, residual activity; format: biochemical
Chain of CDK9 (P50750 whole entry): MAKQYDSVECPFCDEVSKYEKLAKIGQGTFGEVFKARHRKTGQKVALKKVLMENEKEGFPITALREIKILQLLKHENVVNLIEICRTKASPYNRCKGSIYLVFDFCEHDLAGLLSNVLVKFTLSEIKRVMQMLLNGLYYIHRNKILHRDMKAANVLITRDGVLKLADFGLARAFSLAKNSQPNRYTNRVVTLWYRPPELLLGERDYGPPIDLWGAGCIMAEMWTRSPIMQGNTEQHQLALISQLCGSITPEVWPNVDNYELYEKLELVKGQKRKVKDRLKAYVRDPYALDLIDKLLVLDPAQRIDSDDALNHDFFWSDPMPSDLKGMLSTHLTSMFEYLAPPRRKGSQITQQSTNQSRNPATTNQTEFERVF
Chain of CDK9 (O60563 whole entry partner): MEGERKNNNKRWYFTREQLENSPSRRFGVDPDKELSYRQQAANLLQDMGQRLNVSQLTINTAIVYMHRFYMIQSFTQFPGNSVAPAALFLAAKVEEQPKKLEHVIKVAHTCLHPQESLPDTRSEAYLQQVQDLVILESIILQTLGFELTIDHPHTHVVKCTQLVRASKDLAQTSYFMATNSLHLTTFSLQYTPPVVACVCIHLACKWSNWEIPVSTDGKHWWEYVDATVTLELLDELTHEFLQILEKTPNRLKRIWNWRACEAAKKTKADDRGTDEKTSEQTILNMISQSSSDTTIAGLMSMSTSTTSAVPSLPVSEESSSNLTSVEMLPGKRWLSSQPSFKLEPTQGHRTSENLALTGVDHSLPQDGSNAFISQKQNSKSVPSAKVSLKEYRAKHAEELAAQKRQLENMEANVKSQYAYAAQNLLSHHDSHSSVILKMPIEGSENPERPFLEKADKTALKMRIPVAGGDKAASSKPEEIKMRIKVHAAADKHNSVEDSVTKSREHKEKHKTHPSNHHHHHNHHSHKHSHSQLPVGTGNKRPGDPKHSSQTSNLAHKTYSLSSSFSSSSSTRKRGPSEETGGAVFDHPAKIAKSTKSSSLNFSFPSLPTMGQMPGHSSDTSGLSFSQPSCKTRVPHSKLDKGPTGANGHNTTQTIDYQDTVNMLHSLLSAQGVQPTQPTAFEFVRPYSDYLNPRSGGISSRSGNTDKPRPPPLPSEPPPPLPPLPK
Description: (§1) In vitro kinase assay analysis may be performed using standard techniques described in the art. These techniques are also used by commercial services providers in order to offer in vitro kinase activity assay services, e.g. the assays offered by Millipore Inc. (worldwide website www(dot)millipore.com), ProQinase GmbH (worldwide website www(dot)proqinase.de) and others.
In vitro kinase inhibition results shown in columns 7 to 9 in Table 1 were obtained by employing the KinaseProfiler™ service of Millipore and used to select compounds displaying specificity for CDK9. Specifically, it was intended to distinguish the CDK9-specific compounds from other compounds having significant inhibitory potency also with regard to other CDKs.

[3] = biological target: CDK1/CycB (Homo sapiens (Human), UniProt P06493); assay: Kinase activity assay IC50 profile; format: biochemical; conditions: read-out: IC50 CDK1/B
Chain of CDK1/CycB (P06493 whole entry): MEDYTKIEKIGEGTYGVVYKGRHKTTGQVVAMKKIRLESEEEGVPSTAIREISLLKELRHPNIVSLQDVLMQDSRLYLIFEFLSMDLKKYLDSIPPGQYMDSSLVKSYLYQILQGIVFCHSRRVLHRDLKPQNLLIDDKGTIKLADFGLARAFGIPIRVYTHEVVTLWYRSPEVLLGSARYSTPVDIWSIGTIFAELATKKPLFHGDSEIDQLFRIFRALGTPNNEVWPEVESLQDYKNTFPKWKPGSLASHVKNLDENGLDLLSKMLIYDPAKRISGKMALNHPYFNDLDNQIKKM
Chain of CDK1/CycB (P14635 whole entry partner): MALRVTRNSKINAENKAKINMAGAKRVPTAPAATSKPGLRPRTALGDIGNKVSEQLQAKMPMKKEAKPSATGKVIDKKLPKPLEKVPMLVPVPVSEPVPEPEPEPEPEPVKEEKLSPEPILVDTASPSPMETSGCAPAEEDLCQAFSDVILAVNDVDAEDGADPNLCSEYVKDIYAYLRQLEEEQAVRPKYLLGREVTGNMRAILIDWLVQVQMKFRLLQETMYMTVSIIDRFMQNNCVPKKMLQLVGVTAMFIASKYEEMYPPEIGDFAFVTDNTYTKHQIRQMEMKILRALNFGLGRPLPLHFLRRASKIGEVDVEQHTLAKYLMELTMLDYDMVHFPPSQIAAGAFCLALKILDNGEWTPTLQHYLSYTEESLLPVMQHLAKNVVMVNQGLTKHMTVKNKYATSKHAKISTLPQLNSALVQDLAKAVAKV
Description: as §1
(§2) On the day of the kinase inhibition assay, 451 μl H2O were added to each well of a set of compound dilution plates. To minimize precipitation, the H2O was added to the plates only a few minutes before the transfer of the compound solutions into the assay plates. The plates were shaken thoroughly, resulting in “compound dilution plates/10%/DMSO” with a concentration of 1×10^−03 M/10% DMSO to 3×10^−08 M/10% DMSO in semilog steps. These plates were used for the transfer of 5 μl compound solution into the “assay plates”. The compound dilution plates were discarded at the end of the working day. For the assays (see below), 5 μl solution from each well of the compound dilution plates were transferred into the assay plates. The final volume of the assay was 50 μl. […]
(§3) The median value of the counts in column 1 (n=8) of each assay plate was defined as “low control”. This value reflects unspecific binding of radioactivity to the plate in the absence of a protein kinase but in the presence of the substrate. […]

[4] = biological target: CDK3/CycE (Homo sapiens (Human), UniProt Q00526); assay: Kinase activity assay IC50 profile; format: biochemical; conditions: read-out: IC50 CDK3/E
Chain of CDK3/CycE (Q00526 whole entry): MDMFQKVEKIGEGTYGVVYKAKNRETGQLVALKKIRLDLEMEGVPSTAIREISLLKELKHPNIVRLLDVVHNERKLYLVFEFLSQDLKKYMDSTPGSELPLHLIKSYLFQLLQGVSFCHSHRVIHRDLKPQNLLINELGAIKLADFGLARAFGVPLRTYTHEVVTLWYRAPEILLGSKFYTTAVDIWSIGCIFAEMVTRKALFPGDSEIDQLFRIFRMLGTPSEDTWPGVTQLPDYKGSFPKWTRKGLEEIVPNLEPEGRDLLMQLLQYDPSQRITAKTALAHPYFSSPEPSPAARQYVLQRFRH
Chain of CDK3/CycE (P24864 whole entry partner): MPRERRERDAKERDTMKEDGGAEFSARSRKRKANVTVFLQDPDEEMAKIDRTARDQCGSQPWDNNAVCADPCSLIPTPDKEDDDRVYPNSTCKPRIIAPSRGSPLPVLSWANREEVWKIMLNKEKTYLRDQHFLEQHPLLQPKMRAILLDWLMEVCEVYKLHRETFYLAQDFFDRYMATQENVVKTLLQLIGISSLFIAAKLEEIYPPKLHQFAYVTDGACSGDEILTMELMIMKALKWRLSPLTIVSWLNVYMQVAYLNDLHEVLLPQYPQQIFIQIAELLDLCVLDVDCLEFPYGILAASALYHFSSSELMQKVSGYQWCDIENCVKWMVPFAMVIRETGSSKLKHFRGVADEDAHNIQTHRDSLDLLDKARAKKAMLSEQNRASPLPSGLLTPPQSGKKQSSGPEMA
Description: as §1, §2, §3

[5] = biological target: CDK2/CycA (Homo sapiens (Human), UniProt P24941); assay: Kinase activity assay IC50 profile; format: biochemical
Description: as §1, §2, §3

[6] = biological target: CDK5/p35NCK (Homo sapiens (Human), UniProt Q00535); assay: Kinase activity assay IC50 profile; format: biochemical; conditions: read-out: IC50 CDK5/p35
Chain of CDK5/p35NCK (Q00535 whole entry): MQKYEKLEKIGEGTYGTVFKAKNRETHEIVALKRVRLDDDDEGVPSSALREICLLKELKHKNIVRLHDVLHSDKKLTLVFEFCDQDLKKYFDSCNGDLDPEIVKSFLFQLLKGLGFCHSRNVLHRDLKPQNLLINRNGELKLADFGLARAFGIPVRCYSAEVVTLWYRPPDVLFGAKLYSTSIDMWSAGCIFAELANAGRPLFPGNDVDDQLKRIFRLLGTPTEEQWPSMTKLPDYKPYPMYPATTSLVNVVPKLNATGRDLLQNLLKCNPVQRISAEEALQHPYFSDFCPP
Chain of CDK5/p35NCK (Q15078 whole entry partner): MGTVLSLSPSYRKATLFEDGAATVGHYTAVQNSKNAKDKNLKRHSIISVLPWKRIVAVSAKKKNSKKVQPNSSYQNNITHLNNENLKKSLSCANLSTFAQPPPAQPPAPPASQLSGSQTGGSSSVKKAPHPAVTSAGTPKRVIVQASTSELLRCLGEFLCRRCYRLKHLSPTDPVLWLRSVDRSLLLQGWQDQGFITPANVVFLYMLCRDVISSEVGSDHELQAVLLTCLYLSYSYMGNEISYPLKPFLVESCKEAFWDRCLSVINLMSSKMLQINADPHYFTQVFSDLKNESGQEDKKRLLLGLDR
Description: as §1, §2, §3

[7] = biological target: CDK6/CycD3 (Homo sapiens (Human), UniProt Q00534); assay: Kinase activity assay IC50 profile; format: biochemical; conditions: read-out: IC50 CDK6/D3
Chain of CDK6/CycD3 (Q00534 whole entry): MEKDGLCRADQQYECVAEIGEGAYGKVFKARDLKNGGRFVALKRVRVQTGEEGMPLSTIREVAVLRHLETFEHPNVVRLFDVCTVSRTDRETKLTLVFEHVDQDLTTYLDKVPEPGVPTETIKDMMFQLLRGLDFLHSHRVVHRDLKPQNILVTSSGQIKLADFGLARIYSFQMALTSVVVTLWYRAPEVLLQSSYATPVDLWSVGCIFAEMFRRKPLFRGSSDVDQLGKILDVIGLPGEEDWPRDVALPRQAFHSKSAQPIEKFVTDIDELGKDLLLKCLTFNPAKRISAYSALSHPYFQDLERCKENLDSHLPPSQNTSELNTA
Chain of CDK6/CycD3 (P30281 whole entry partner): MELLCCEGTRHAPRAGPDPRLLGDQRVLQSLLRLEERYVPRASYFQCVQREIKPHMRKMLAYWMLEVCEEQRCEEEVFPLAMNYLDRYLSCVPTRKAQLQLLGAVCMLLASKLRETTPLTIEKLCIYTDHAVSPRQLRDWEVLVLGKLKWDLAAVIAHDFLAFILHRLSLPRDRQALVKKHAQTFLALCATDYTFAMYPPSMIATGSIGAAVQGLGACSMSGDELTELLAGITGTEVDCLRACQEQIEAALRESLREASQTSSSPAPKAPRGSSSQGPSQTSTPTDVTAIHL

[8] = biological target: CDK7/CycH/MAT1 (Homo sapiens (Human), UniProt P50613); assay: Kinase activity assay IC50 profile; format: biochemical; conditions: read-out: IC50 CDK7/H/MAT1
Description: as §1
(§4) On the day of the kinase inhibition assay, 451 μl H2O were added to each well of a set of compound dilution plates. To minimize precipitation, the H2O was added to the plates only a few minutes before the transfer of the compound solutions into the assay plates. The plates were shaken thoroughly, resulting in “compound dilution plates/10%/DMSO” with a concentration of 1×10^−03 M/10% DMSO to 3×10^−08 M/10% DMSO in semilog steps. These plates were used for the transfer of 5 μl compound solution into the “assay plates”. The compound dilution plates were discarded at the end of the working day. For the assays (see below), 5 μl solution from each well of the compound dilution plates were transferred into the assay plates. The final volume of the assay was 50 μl. All compounds were tested at 10 final assay concentrations in the range from 1×10^−04 M to 3×10^−09 M. The final DMSO concentration in the reaction mixtures was 1% in all cases.
(§5) All kinase assays were performed in 96-well FlashPlates™ from Perkin Elmer/NEN (Boston, Mass., USA) in a 50 μl reaction volume. The reaction mixture was pipetted in four steps in the following order: • 20 μl of assay buffer (standard buffer) • 5 μl of ATP solution (in H2O) • 5 μl of test compound (in 10% DMSO) • 10 μl of substrate/10 μl of enzyme solution (premixed)
(§6) The assay for all enzymes contained 60 mM HEPES-NaOH (pH 7.5), 3 mM MgCl2, 3 mM MnCl2, 3 μM Na-Orthovanadate, 1.2 mM DTT, 50 μg/ml PEG2000, 1 μM [^33P]-ATP (approx. 5 ×1005 cpm per well).
(§7) Reaction mixtures were incubated at 30° C. for 80 min. The reaction was stopped with 50 μl of 2% (v/v) H3PO4, plates were aspirated and washed two times with 200 μl H2O or 200 μl 0.9% (w/v) NaCl. Incorporation of ^33P was determined with a microplate scintillation counter (Microbeta, Wallac).
(§8) The median value of the counts in column 1 (n=8) of each assay plate was defined as “low control”. This value reflects unspecific binding of radioactivity to the plate in the absence of a protein kinase but in the presence of the substrate. […] The residual activity (in %) for each well of a particular plate was calculated by using the following formula: Res. Activity(%)=100×[(cpm of compound−low control)/(high control−low control)]
(§9) The residual activities for each concentration and the compound IC50 values were calculated using Quattro Workflow V2.0.1.3 (Quattro Research GmbH, Munich, Germany; worldwide website www(dot)quattro-research.com). […]

[9] = biological target: GSK3-alpha (Homo sapiens (Human), UniProt P49840); assay: Kinase activity assay IC50 profile; format: biochemical; conditions: read-out: IC50 GSK3a
Chain of GSK3-alpha (P49840 whole entry): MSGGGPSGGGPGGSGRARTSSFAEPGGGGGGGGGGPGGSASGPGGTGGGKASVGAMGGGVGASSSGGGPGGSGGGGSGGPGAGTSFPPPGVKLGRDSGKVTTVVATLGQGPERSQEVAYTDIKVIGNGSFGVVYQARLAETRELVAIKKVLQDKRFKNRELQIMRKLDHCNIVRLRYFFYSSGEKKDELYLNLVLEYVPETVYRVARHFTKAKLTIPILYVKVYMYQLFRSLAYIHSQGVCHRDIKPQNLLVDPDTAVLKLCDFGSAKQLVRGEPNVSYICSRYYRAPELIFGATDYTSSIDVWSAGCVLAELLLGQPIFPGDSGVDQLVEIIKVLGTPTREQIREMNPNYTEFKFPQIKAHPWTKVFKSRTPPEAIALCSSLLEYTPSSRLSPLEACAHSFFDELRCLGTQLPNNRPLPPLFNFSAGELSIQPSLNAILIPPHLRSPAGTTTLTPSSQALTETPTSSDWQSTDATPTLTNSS
Description: as §1, §4, §5, §6, §7, §8, §9

[10] = biological target: GSK3-beta (Homo sapiens (Human), UniProt P49841); assay: Kinase activity assay IC50 profile; format: biochemical; conditions: read-out: IC50 GSK3b
Chain of GSK3-beta (P49841 whole entry): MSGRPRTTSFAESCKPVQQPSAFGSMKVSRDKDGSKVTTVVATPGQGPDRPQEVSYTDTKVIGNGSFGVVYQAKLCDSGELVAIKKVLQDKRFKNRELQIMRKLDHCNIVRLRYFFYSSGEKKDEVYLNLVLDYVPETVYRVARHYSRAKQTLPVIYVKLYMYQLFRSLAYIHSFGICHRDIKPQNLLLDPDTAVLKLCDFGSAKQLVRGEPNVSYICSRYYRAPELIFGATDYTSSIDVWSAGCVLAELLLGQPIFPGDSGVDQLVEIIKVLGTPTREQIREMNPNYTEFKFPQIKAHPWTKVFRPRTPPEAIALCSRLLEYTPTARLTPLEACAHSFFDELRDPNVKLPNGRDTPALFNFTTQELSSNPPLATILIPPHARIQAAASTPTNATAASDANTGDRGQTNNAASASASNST
Description: as §1, §4, §5, §6, §7, §8, §9

[11] = biological target: IRAK1 (Homo sapiens (Human), UniProt P51617); assay: Kinase activity assay IC50 profile; format: biochemical
Description: as §1, §4, §5, §6, §7, §8, §9

- remaining activity at 0.01 µM ([2]; residual activity at 10 nM compound, read-out: CDK9 10 nM (RA in %)): 29%
- remaining activity at 0.1 µM ([2]; residual activity at 100 nM compound, read-out: CDK9 100 nM (RA in %)): 3%
- IC50 [3]: 94 nM
- IC50 [4]: 219 nM
- IC50 [5]: 168 nM
- IC50 [6]: 1080 nM
- IC50 [7]: > 5000 nM
- IC50 [8]: > 5000 nM
- IC50 [9]: 160 nM
- IC50 [10]: 903 nM
- IC50 [11]: > 5000 nM
Compound: COc1cc(F)ccc1-c1ccnc(NC(=O)[C@H]2CCC[C@@H](NC(C)=O)C2)c1 (relative stereo) [Example 33, cis-3-Acetamido-N-(4-(4-fluoro-2-methoxyphenyl)pyridin-2-yl)cyclo-hexanecarboxamide]
- activity at 3 µM [1]: 3%
